Patent US8063065B2, “Azaindazole compounds as CCR1 receptor antagonists” (Boehringer Ingelheim International GmbH, priority 2008, dated 2011)

Molecular target: T1, CCR1 (Homo sapiens, UniProt P32246)
T1 sequence (P32246 1-355): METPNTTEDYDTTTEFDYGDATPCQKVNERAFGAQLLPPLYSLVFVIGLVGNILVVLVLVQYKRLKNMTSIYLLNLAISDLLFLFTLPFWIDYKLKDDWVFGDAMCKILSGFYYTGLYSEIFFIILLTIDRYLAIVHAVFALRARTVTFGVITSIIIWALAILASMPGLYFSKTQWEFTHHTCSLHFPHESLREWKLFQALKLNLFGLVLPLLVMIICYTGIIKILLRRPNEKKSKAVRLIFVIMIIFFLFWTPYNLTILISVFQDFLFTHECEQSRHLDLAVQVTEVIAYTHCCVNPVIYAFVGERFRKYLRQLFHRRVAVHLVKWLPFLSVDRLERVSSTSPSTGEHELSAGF
Test: Method B: calcium flux in CCR1 transfected cells (Calcium 4 dye, […] FDSS6000), block of the CCR1/MIP-1α interaction
Type: cell-based
Settings: Method B: Calcium 4 dye, MIP-1alpha at EC80
Procedure, shortened: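 Non-adherent cells stably expressing CCR1 and G-alpha-16 were loaded with Calcium 4 dye plus probenecid for 1 h at room temperature. Compounds (top 3,000 nM, 4-fold, 10 doses, 1% DMSO) in HBSS/20 mM HEPES pH 7.4 were incubated 30 min at 37 C, then 30 min at room temperature. MIP-1α at EC80 was added and calcium flux read on FDSS6000.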

In order of falling IC50:
1. C[C@H](NC(=O)c1cncc2c1cnn2-c1ccc(F)cc1)c1nc(Br)cs1 [1-(4-Fluorophenyl)-1H-pyrazolo[3,4-c]pyridine-4-carboxylic acid [(S)-1-(4-bromo-thiazol-2-yl)-ethyl]-amide]  24 nM
2. C[C@H](NC(=O)c1cncc2c1cnn2-c1ccc(F)cc1)c1cccc(S(N)(=O)=O)n1 [1-(4-Fluorophenyl)-1H-pyrazolo[3,4-c]pyridine-4-carboxylic acid [(S)-1-(6-sulfamoyl-pyridin-2-yl)-ethyl]-amide]  15 nM
3. CCS(=O)(=O)c1cccc([C@H](C)NC(=O)c2cncc3c2cnn3-c2ccc(F)cc2)n1 [1-(4-Fluorophenyl)-1H-pyrazolo[3,4-c]pyridine-4-carboxylic acid [(S)-1-(6-ethanesulfonyl-pyridin-2-yl)-ethyl]-amide]  14 nM
4. CC[C@H](NC(=O)c1cncc2c1cnn2-c1ccc(F)cc1)c1ccnc(N2CCC(S(C)(=O)=O)CC2)c1 [1-(4-Fluorophenyl)-1H-pyrazolo[3,4-c]pyridine-4-carboxylic acid [(S)-1-(4-methanesulfonyl-3,4,5,6-tetrahydro-2H-[1,2′]bipyridinyl-4′-yl)-propyl]-amide]  13 nM
5. CC[C@H](NC(=O)c1cncc2c1cnn2-c1ccc(F)cc1)c1nc(C(N)=O)cs1 [1-(4-Fluorophenyl)-1H-pyrazolo[3,4-c]pyridine-4-carboxylic acid [(S)-1-(4-carbamoyl-thiazol-2-yl)-propyl]-amide]  8 nM
6. CC[C@H](NC(=O)c1cncc2c1cnn2-c1ccc(F)cc1)c1cc(S(C)(=O)=O)co1 [1-(4-Fluorophenyl)-1H-pyrazolo[3,4-c]pyridine-4-carboxylic acid [(S)-1-(4-methanesulfonyl-furan-2-yl)-propyl]-amide]  6 nM
7. CCS(=O)(=O)c1ccc([C@H](C)NC(=O)c2cncc3c2cnn3-c2ccc(F)cc2)cn1 [1-(4-Fluorophenyl)-1H-pyrazolo[3,4-c]pyridine-4-carboxylic acid [(S)-1-(6-ethanesulfonyl-pyridin-3-yl)-ethyl]-amide]  6 nM
8. CCS(=O)(=O)c1cncc([C@H](C)NC(=O)c2cncc3c2cnn3-c2ccc(F)cc2)c1 [1-(4-Fluorophenyl)-1H-pyrazolo[3,4-c]pyridine-4-carboxylic acid [(S)-1-(5-ethanesulfonyl-pyridin-3-yl)-ethyl]-amide]  4 nM
9. CC[C@H](NC(=O)c1cncc2c1cnn2-c1ccc(F)cc1)c1nc(C(=O)NC)cs1 [1-(4-Fluorophenyl)-1H-pyrazolo[3,4-c]pyridine-4-carboxylic acid [(S)-1-(4-methylcarbamoyl-thiazol-2-yl)-propyl]-amide]  3 nM
10. C[C@H](NC(=O)c1cncc2c1cnn2-c1ccc(F)cc1)c1cc(S(C)(=O)=O)[nH]c(=O)c1 [1-(4-Fluorophenyl)-1H-pyrazolo[3,4-c]pyridine-4-carboxylic acid [(S)-1-(6-methanesulfonyl-2-oxo-1,2-dihydropyridin-4-yl)-ethyl]-amide]  3 nM
11. CC[C@H](NC(=O)c1cncc2c1cnn2-c1ccc(F)cc1)c1cc(S(C)(=O)=O)c[nH]1 [1-(4-Fluorophenyl)-1H-pyrazolo[3,4-c]pyridine-4-carboxylic acid [(S)-1-(4-methanesulfonyl-1H-pyrrol-2-yl)-propyl]-amide]  1 nM
12. CC[C@H](NC(=O)c1cncc2c1cnn2-c1ccc(F)cc1)c1ccc(S(C)(=O)=O)nc1 [1-(4-Fluorophenyl)-1H-pyrazolo[3,4-c]pyridine-4-carboxylic acid [(S)-1-(6-methanesulfonyl-pyridin-3-yl)-propyl]-amide]  1 nM
13. CC[C@H](NC(=O)c1cncc2c1cnn2-c1ccc(F)cc1)c1c[nH]c(S(C)(=O)=O)c1 [1-(4-Fluorophenyl)-1H-pyrazolo[3,4-c]pyridine-4-carboxylic acid [(S)-1-(5-methanesulfonyl-1H-pyrrol-3-yl)-propyl]-amide]  0.9 nM
14. CC[C@H](NC(=O)c1cncc2c1cnn2-c1ccc(F)cc1)c1nc(Br)cs1 [1-(4-Fluorophenyl)-1H-pyrazolo[3,4-c]pyridine-4-carboxylic acid [(S)-1-(4-bromo-thiazol-2-yl)-propyl]-amide]  0.8 nM
15. CC[C@H](NC(=O)c1cncc2c1cnn2-c1ccc(F)cc1)c1cc(S(C)(=O)=O)ccn1 [1-(4-Fluorophenyl)-1H-pyrazolo[3,4-c]pyridine-4-carboxylic acid [(S)-1-(4-methanesulfonyl-pyridin-2-yl)-propyl]-amide]  0.8 nM
16. CC[C@H](NC(=O)c1cncc2c1cnn2-c1ccc(F)cc1)c1ccc(Br)s1 [1-(4-Fluorophenyl)-1H-pyrazolo[3,4-c]pyridine-4-carboxylic acid [(S)-1-(5-bromo-thiophen-2-yl)-propyl]-amide]  0.6 nM
17. CC[C@H](NC(=O)c1cncc2c1cnn2-c1ccc(F)cc1)c1ccc(Br)c(OC)c1 [1-(4-Fluorophenyl)-1H-pyrazolo[3,4-c]pyridine-4-carboxylic acid [(S)-1-(4-bromo-3-methoxy-phenyl)-propyl]-amide]  0.5 nM
18. CC[C@H](NC(=O)c1cncc2c1cnn2-c1ccc(F)cc1)c1cccc(S(=O)(=O)CC)n1 [1-(4-Fluorophenyl)-1H-pyrazolo[3,4-c]pyridine-4-carboxylic acid [(S)-1-(6-ethanesulfonyl-pyridin-2-yl)-propyl]-amide]  0.5 nM
19. CC[C@H](NC(=O)c1cncc2c1cnn2-c1ccc(F)cc1)c1ccc(S(C)(=O)=O)o1 [1-(4-Fluorophenyl)-1H-pyrazolo[3,4-c]pyridine-4-carboxylic acid [(S)-1-(5-methanesulfonyl-furan-2-yl)-propyl]-amide]  0.4 nM
20. CCC[C@H](NC(=O)c1cncc2c1cnn2-c1ccc(F)cc1)c1ccc(S(C)(=O)=O)nc1 [1-(4-Fluorophenyl)-1H-pyrazolo[3,4-c]pyridine-4-carboxylic acid [(S)-1-(6-methanesulfonyl-pyridin-3-yl)-butyl]-amide]  0.4 nM
21. CC[C@H](NC(=O)c1cncc2c1cnn2-c1ccc(F)cc1)c1nc(S(C)(=O)=O)cs1 [1-(4-Fluorophenyl)-1H-pyrazolo[3,4-c]pyridine-4-carboxylic acid [(S)-1-(4-methanesulfonyl-thiazol-2-yl)-propyl]-amide]  0.3 nM
22. CC[C@H](NC(=O)c1cncc2c1cnn2-c1ccc(F)cc1)c1csc(S(C)(=O)=O)c1 [1-(4-Fluorophenyl)-1H-pyrazolo[3,4-c]pyridine-4-carboxylic acid [(S)-1-(5-methanesulfonyl-thiophen-3-yl)-propyl]-amide]  0.3 nM
23. CC[C@H](NC(=O)c1cncc2c1cnn2-c1ccc(F)cc1)c1cncc(S(N)(=O)=O)c1 [1-(4-Fluorophenyl)-1H-pyrazolo[3,4-c]pyridine-4-carboxylic acid [(S)-1-(5-sulfamoyl-pyridin-3-yl)-propyl]-amide]  0.3 nM
24. CC[C@H](NC(=O)c1cncc2c1cnn2-c1ccc(F)cc1)c1ccc(S(=O)(=O)CC)nc1 [1-(4-Fluorophenyl)-1H-pyrazolo[3,4-c]pyridine-4-carboxylic acid [(S)-1-(6-ethanesulfonyl-pyridin-3-yl)-propyl]-amide]  0.3 nM
25. CC[C@H](NC(=O)c1cncc2c1cnn2-c1ccc(F)cc1)c1cc(S(C)(=O)=O)[nH]c(=O)c1 [1-(4-Fluorophenyl)-1H-pyrazolo[3,4-c]pyridine-4-carboxylic acid [(S)-1-(6-methanesulfonyl-2-oxo-1,2-dihydropyridin-4-yl)-propyl]-amide]  0.3 nM
26. CC[C@H](NC(=O)c1cncc2c1cnn2-c1ccc(F)cc1)c1ccc(O)c(S(C)(=O)=O)c1 [1-(4-Fluorophenyl)-1H-pyrazolo[3,4-c]pyridine-4-carboxylic acid [(S)-1-(4-hydroxy-3-methanesulfonyl-phenyl)-propyl]-amide]  0.2 nM
27. CC[C@H](NC(=O)c1cncc2c1cnn2-c1ccc(F)cc1)c1ccc(S(C)(=O)=O)c(OC)c1 [1-(4-Fluorophenyl)-1H-pyrazolo[3,4-c]pyridine-4-carboxylic acid [(S)-1-(4-methanesulfonyl-3-methoxy-phenyl)-propyl]-amide]  0.2 nM
28. CC[C@H](NC(=O)c1cncc2c1cnn2-c1ccc(F)cc1)c1ccc(S(C)(=O)=O)s1 [1-(4-Fluorophenyl)-1H-pyrazolo[3,4-c]pyridine-4-carboxylic acid [(S)-1-(5-methanesulfonyl-thiophen-2-yl)-propyl]-amide]  0.2 nM
29. CC[C@H](NC(=O)c1cncc2c1cnn2-c1ccc(F)cc1)c1cccc(Br)n1 [1-(4-Fluorophenyl)-1H-pyrazolo[3,4-c]pyridine-4-carboxylic acid [(S)-1-(6-bromopyridin-2-yl)-propyl]-amide]  0.2 nM
30. CC[C@H](NC(=O)c1cncc2c1cnn2-c1ccc(F)cc1)c1ccc(S(=O)(=O)NC2CC2)nc1 [1-(4-Fluorophenyl)-1H-pyrazolo[3,4-c]pyridine-4-carboxylic acid [(S)-1-(6-cyclopropylsulfamoyl-pyridin-3-yl)-propyl]-amide]  0.2 nM
31. CC[C@H](NC(=O)c1cncc2c1cnn2-c1ccc(F)cc1)c1cccc(S(C)(=O)=O)n1 [1-(4-Fluorophenyl)-1H-pyrazolo[3,4-c]pyridine-4-carboxylic acid [(S)-1-(6-methanesulfonyl-pyridin-2-yl)-propyl]-amide]  0.2 nM
32. CC[C@H](NC(=O)c1cncc2c1cnn2-c1ccc(F)cc1)c1cc(S(C)(=O)=O)cs1 [1-(4-Fluorophenyl)-1H-pyrazolo[3,4-c]pyridine-4-carboxylic acid [(S)-1-(4-methanesulfonyl-thiophen-2-yl)-propyl]-amide]  0.1 nM
